According to patent US8003812B2, “C10 cyclopentyl ester substituted taxanes” (priority 2004, dated 2011):
Values joined by “and” are separate entries in the source; they are usually repeats but may differ in a detail not shown here. Identical values can stand only once. Like-named read-outs stand apart in the source and are kept apart here.

Tests used:
[1] = tested on: human pancreatic tumor xenograft Panc-1; conditions: for No. of CR / No. of LTTES / No. of PR: 6 mice; for Median TTE: endpoint 1200 mg; for Efficacy Score = 10*(TWd1−TWdn)/TWd1: best score 10; for No. of NTR / No. of TR: mouse, in vivo, po;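 as to all read-outs here: Panc-1 fragments grown subcutaneously in athymic nude mice, one oral dose given on Day 1, six mice per group, tumor endpoint 1200 mm^3, control is Group 1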
Protocol: The tumor used for this study was maintained in athymic nude mice. A tumor fragment (1 mm^3) was implanted s.c. into the right flank of each test mouse. Tumors were monitored twice weekly and then daily as their volume approached 200-400 mm^3 with a mean of 250-300 mm^3. On Day 1 of the study, the animals were sorted into treatment groups with tumor sizes of 171.5-320.0 mm^3 and group mean tumor sizes of 212.6-216.0 mm^3. Tumor size, in mm^3, was calculated from the following formula:
[formula] where w=width and l=length in mm of the tumor. Tumor weight was estimated with the assumption that 1 mg is equivalent to 1 mm^3 of tumor volume. […] All treatments were administered orally, once on Day 1 (qd×1). […] In all groups, the dosing volume of 0.6 mL/20 g mouse was scaled to the body weight of each animal. Each animal was euthanized when its neoplasm reached the predetermined endpoint size (1200 mm^3). The time to endpoint (TTE) for each mouse was calculated by the following equation:
[formula] where TTE is expressed in days, endpoint volume is in mm^3, b is the intercept, and m is the slope of the line obtained by linear regression of a log-transformed tumor growth data set. The data set is comprised of the first observation that exceeded the study endpoint volume and the three consecutive observations that immediately preceded the attainment of the endpoint volume. […] Animals classified as TR (treatment-related) deaths or NTRM (non-treatment-related metastasis) deaths are assigned a TTE value equal to the day of death. Animals classified as NTR (non-treatment-related) deaths are excluded from TTE calculations. Treatment efficacy was determined from tumor growth delay (TGD), which is defined as the increase in the median TTE for a treatment group compared to the control group: TGD=T−C, expressed in days, or as a percentage of the median TTE of the control group:
[formula] where: • T=median TTE for a treatment group and • C=median TTE for control Group 1.
Treatment may cause partial regression (PR) or complete regression (CR) of the tumor in an animal. In a PR response, the tumor volume is 50% or less of its Day 1 volume for three consecutive measurements during the course of the study, and equal to or greater than 13.5 mm^3 for one or more of these three measurements. In a CR response, the tumor volume is less than 13.5 mm^3 for three consecutive measurements during the course of the study. An animal with a CR response at the termination of a study is additionally classified as a long-term tumor-free survivor (LTTFS).
With respect to toxicity, the animals were weighed daily on Days 1-5, then twice weekly until the completion of the study. The mice were examined frequently for overt signs of any adverse, drug-related side effects. Acceptable toxicity for the maximum tolerated dose (MTD) of a cancer drug in mice is defined by the NCl as a group mean body-weight (BW) loss of less than 20% during the test, and not more than one toxic death among ten treated animals. The log rank test was employed to analyze the significance of the difference between the TTE values of a drug-treated group and the vehicle-treated control group. The log rank test analyzes the data for all animals except the NTR deaths. The two-tailed statistical analyses were conducted at P=0.05. The group median tumor growth curves show the median tumor volume (MTV) as a function of time. When an animal exited the study due to tumor size or TR death, the final tumor volume recorded for the animal was included with the data used to calculate the median volume at subsequent time points.

[2] = tested on: Sprague-Dawley rats; assay: In vivo toxicity assessment in rats, oral; parameters: species or system rat; key to Neu Tox score: N (0); −10: Y (1-4); key to PTL R (Recovery) score / L/W Dia score / B/M Dia score / BW R (Recovery) score / WBC R (Recovery) score: −5: N; 0: Y; conditions: for Total Score AVE: average of 3 rats; for Total Score: per rat, maximum 130; for ALT score / AST score / B/M Dia score / BW score / L/W Dia score / Neu Tox score / WBC R (Recovery) score / WBC score / BUN score / BW R (Recovery) score / PTL R (Recovery) score / PTL score: score per rat
Protocol: Toxicity was assessed in 250-300g Sprague-Dawley rats and three rats were used per dose group. Three dose groups of the test compound, (i.e., 3 mg/kg, 9 mg/kg and 12 mg/kg for intravenous administration; 15 mg/kg, 30 mg/kg and 40 mg/kg) and 1 control group constituted a study. Animals were observed and clinical chemistry data collected at days 4 and 10. Rats were euthanized on day 11 and the nerves were excised and fixed upon euthanization for further examination.
Each rat is scored as described below and a final toxicity score that incorporates all parameters is assigned. A dead rat is assigned a score of zero. Most of the parameters contribute a positive value towards a total possible score of 130. For body weight, white blood cell, and platelet decreases, recovery is considered. […] The total score is divided by 13 to put it on a scale from 0 to 10.

[3] = tested on: HT29 (human colon carcinoma) xenograft; conditions: for # Death NTR / # Death TR / MDS to 1.0 g ± SEM (n) / Efficacy Score = 10*(TWd1−TWdn)/TWd1: HT29; for # Death NTR / # Death TR: 6 mice; for Efficacy Score = 10*(TWd1−TWdn)/TWd1: best score 10; for Max. % BW Loss; Day: mouse, in vivo, po
Description: Score=10*(TWd1−TWdn)/TWd1, where
TWd1=tumor weight on day 1
TWDn=lowest tumor weight on day 10 or later
Thus the best score for complete regression would be 10.

[4] = Panc-1, Group 2: 120 mg/kg po qd × 1
[5] = Panc-1, Group 2: 120 mg/kg po qd × 1, 120 mg/kg
[6] = Panc-1, Group 3: 60 mg/kg po qd × 1
[7] = Panc-1, Group 3: 60 mg/kg po qd × 1, 60 mg/kg
[8] = oral, High Dose 40 mg/kg, 40 mg/kg
[9] = oral, Low Dose 15 mg/kg, 15 mg/kg
[10] = oral, Mid Dose 30 mg/kg, 30 mg/kg

## CC(=O)OC12COC1CC(O)C1(C)C(=O)C(OC(=O)C3CCCC3)C3=C(C)C(OC(=O)C(O)C(NC(=O)OC(C)C)c4cccs4)CC(O)(C(OC(=O)c4ccccc4)C21)C3(C)C (centres unmarked) [Compound 9091]
[1]; [4]
  T − C: 40.1 days
  No. of CR: 3
  No. of LTTES: 3
  No. of PR: 3
  Median TTE: 59.0 days
[1]; [5]
  % TGD: 212%
  Tumor Burden Median(n), Day 59 (MTV): 56 mm^3 and 56 (6) mm^3
[1]; [6]
  T − C: 40.1 days
  No. of CR: 1
  No. of LTTES: 1
  No. of PR: 5
  Median TTE: 59.0 days
[1]; [7]
  % TGD: 212%
  Tumor Burden Median(n), Day 59 (MTV): 148 mm^3 and 148 (6) mm^3
[1]; Panc-1, at both the 120 and 60 mg/kg dose, po qd × 1
  survival: 100%
[1]; Panc-1, at both the 120 and 60 mg/kg dose, po qd × 1, 6 mice per group
  regression responses: six
[1]; Panc-1, single dose oral 60 mg/kg
  Efficacy Score = 10*(TWd1−TWdn)/TWd1: 8.3
[1]; Panc-1, single dose oral 120 mg/kg
  Efficacy Score = 10*(TWd1−TWdn)/TWd1: 9.1
[1]; 60 mg/kg
  No. of NTR: 0
  No. of TR: 0
[1]; 120 mg/kg
  No. of NTR: 0
  No. of TR: 0
[2]; Oral, dose 15 mg, scale 0 to 10
  Tox Score, Dose 15 mg: 7.4
[2]; Oral, dose 30 mg, scale 0 to 10
  Tox Score, Dose 30 mg: 6.7
[2]; Oral, dose 40 mg, scale 0 to 10
  Tox Score, Dose 40 mg: 4.6
[2]; Oral, average of 3 dose groups
  Tox Score, Average: 6.2
[2]; Oral, weighted by dose
  Tox Score, Weighted Avg: 5.8
[2]; PO, summary score, scale 0 to 10
  Rat tox score PO: 6
[2]; oral
  toxicity profile in the oral rat studies compared with congener: better toxicity profile
[2]; oral, High Dose 40 mg/kg
  Total Score AVE: 60
  ALT score: 20 (<1.25Xcont)
  AST score: 20 (<1.25Xcont)
  B/M Dia score: 0
  BW score: 0 (≧20%)
  L/W Dia score: 0
  Neu Tox score: −10
  WBC R (Recovery) score: 0
  WBC score: 0 (≧50%)
[2]; [8]
  Total Score: 55 and 65 and 60
  BUN score: 10 (≧1.25Xcont) and 20 (<1.25Xcont) (2×)
  BW R (Recovery) score: 0 and −5 (2×)
  PTL R (Recovery) score: −5 and 0 (2×)
  PTL score: 20 (<25%) (2×) and 5 (≧50%)
[2]; oral, High Dose 40 mg/kg, scale 0 to 10
  Group score = average of 3 rats/13: 4.62
[2]; oral, Low Dose 15 mg/kg
  Total Score AVE: 96.7
  ALT score: 20 (<1.25Xcont)
  AST score: 20 (<1.25Xcont)
  B/M Dia score: 5
  BUN score: 20 (<1.25Xcont)
  BW R (Recovery) score: 0
  L/W Dia score: 0
  Neu Tox score: −10
  PTL R (Recovery) score: 0
  WBC R (Recovery) score: 0
[2]; [9]
  Total Score: 110 and 85 and 95
  BW score: 20 (<10%) (2×) and 10 (≧10%)
  PTL score: 20 (<25%) (2×) and 10 (≧25%)
  WBC score: 5 (≧25%) and 0 (≧50%) (2×)
[2]; oral, Low Dose 15 mg/kg, scale 0 to 10
  Group score = average of 3 rats/13: 7.44
[2]; oral, Mid Dose 30 mg/kg
  Total Score AVE: 86.7
  ALT score: 20 (<1.25Xcont)
  AST score: 20 (<1.25Xcont)
  B/M Dia score: 0
  BUN score: 20 (<1.25Xcont)
  BW R (Recovery) score: 0
  L/W Dia score: 0
  Neu Tox score: −10
  PTL R (Recovery) score: 0
  PTL score: 20 (<25%)
  WBC R (Recovery) score: 0
[2]; [10]
  Total Score: 85 and 95 and 80
  BW score: 5 (≧15%) and 10 (≧10%) (2×)
  WBC score: 0 (≧50%) (2×) and 5 (≧25%)
[2]; oral, Mid Dose 30 mg/kg, scale 0 to 10
  Group score = average of 3 rats/13: 6.67
[3]; Group 18: 15 mg/kg po q4d × 4
  # Death NTR: 0
  # Death TR: 0
[3]; Group 18: 15 mg/kg po q4d × 4, n=6
  MDS to 1.0 g ± SEM (n): 24.4 ± 1.4 (6)
[3]; Group 19: 30 mg/kg po q4d × 4
  # Death NTR: 0
  # Death TR: 0
[3]; Group 19: 30 mg/kg po q4d × 4, n=1
  MDS to 1.0 g ± SEM (n): 25.6 ± (1)
[3]; Group 20: 45 mg/kg po q4d × 4
  # Death NTR: 0
  # Death TR: 0
[3]; Group 21: 60 mg/kg po q4d × 4
  # Death NTR: 0
  # Death TR: 4
[3]; single dose oral 60 mg/kg
  Efficacy Score = 10*(TWd1−TWdn)/TWd1: 4.3
[3]; single dose oral 120 mg/kg
  Efficacy Score = 10*(TWd1−TWdn)/TWd1: 8.7
[3]; 30 mg/kg
  Max. % BW Loss; Day: −11.3%;
[3]; 45 mg/kg
  Max. % BW Loss; Day: −22.6%;
[3]; 60 mg/kg
  Max. % BW Loss; Day: −28.1%;
